Tests used:
Thymidylate synthase [1] = target: Thymidylate synthase (Escherichia coli K-12, UniProt P0A884); assay: Inhibition of Escherichia coli thymidylate synthase A
Thymidylate synthase [2] = target: Thymidylate synthase (Homo sapiens, UniProt P04818)
Description: Inhibition of human thymidylate synthase A

Dihydrofolate reductase = target: T1, Dihydrofolate reductase (Homo sapiens, UniProt P00374); assay: Inhibition of human DHFR
T1 sequence (P00374 whole entry): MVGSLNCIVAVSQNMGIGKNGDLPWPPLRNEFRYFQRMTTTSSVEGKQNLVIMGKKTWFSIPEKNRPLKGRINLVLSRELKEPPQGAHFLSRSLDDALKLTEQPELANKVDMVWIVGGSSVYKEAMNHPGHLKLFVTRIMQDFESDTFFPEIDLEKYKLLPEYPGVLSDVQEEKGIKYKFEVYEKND

Chain of Thymidylate synthase (Escherichia coli K-12, UniProt P0A884) (P0A884 whole entry): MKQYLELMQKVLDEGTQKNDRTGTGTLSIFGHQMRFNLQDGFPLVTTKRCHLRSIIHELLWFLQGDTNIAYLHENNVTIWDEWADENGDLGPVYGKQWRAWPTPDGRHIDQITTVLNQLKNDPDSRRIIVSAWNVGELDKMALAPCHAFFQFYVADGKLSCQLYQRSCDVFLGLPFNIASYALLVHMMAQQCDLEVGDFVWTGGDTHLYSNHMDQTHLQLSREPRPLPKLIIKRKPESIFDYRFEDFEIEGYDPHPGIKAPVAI
Chain of Thymidylate synthase (Homo sapiens, UniProt P04818) (P04818 whole entry): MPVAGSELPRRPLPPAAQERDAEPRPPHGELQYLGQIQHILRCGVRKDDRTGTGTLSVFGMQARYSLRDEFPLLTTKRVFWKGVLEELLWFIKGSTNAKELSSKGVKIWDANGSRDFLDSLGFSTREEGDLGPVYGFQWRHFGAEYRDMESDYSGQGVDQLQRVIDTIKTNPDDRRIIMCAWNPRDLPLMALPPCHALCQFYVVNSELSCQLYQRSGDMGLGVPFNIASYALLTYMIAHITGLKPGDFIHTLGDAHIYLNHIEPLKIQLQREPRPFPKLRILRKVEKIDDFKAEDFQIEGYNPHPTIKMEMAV

Compound | Ki (Thymidylate synthase [1]) [µM] | Ki (Thymidylate synthase [2]) [µM] | Ki (Dihydrofolate reductase) [µM]
O=C1OCc2cccc3cccc1c23 | > 304 | 47 | –
N#CC(C#N)=c1c(=O)c2cccc3cccc1c32 | > 294 | > 309 | –
Cn1cc(-c2ccc(S(=O)(=O)Nc3cc4c5c(cccc5c3)C(=O)OC4=O)s2)cc1C(F)(F)F | 1.9 | – | –
Cc1ccc2c3c(cccc13)C(=O)CC2 | > 294 | 3.1 | –
CC1(C)C(=O)c2cccc3cccc(c23)C1=O | > 588 | 33 | –
O=C1OC(c2ccccc2)(c2ccccc2)c2cccc3cccc1c23 | > 294 | > 309 | –
O=C1OC(=O)c2ccc(Cl)c3cccc1c23 | 105 | – | –
O=C1OC(=O)c2ccc(S(=O)(=O)O)c3cccc1c23 | > 784 | > 824 | –
O=C1OC(=O)c2ccc(SCCO)c3cccc1c23 | > 451 | > 474 | –
CCOC(=O)CSc1ccc2c3c(cccc13)C(=O)OC2=O | > 588 | – | –
O=C1OC(=O)c2cc([N+](=O)[O-])cc3cccc1c23 | > 196 | > 206 | –
Nc1cc2c3c(cccc3c1)C(=O)OC2=O | 6.8 | > 412 | –
O=C(Nc1cc2c3c(cccc3c1)C(=O)OC2=O)c1ccc([N+](=O)[O-])cc1 | 17 | – | –
Nc1ccc(C(=O)Nc2cc3c4c(cccc4c2)C(=O)OC3=O)cc1 | 21.6 | > 823 | –
O=C(Nc1cc2c3c(cccc3c1)C(=O)OC2=O)c1cccc(C(F)(F)F)c1 | 4.4 | – | –
COC(=O)CCC(=O)Nc1cc2c3c(cccc3c1)C(=O)OC2=O | 7.1 | – | –
O=C1OC(=O)c2cc(NS(=O)(=O)c3ccccc3)cc3cccc1c23 | 4.2 | – | –
O=C1OC(=O)c2cc(NS(=O)(=O)c3cccs3)cc3cccc1c23 | 2.2 | – | –
O=C1OC(=O)c2cc(NS(=O)(=O)c3ccc(C(F)(F)F)cc3[N+](=O)[O-])cc3cccc1c23 | 1.3 | – | –
O=C1OC(=O)c2cc(NS(=O)(=O)c3ccc(S(=O)(=O)c4ccccc4)s3)cc3cccc1c23 | 1.2 | – | –
O=C1OC(=O)c2cc(NS(=O)(=O)c3cccc4cccnc34)cc3cccc1c23 | 2.9 | – | –
O=C1OC(=O)c2cc(NS(=O)(=O)c3cccc4nsnc34)cc3cccc1c23 | 0.9 | – | –
O=C(Nc1cc2c3c(cccc3c1)C(=O)OC2=O)c1ccc2c(c1)OCO2 | 7.4 | – | –
O=C(/C=C/c1ccccc1Cl)Nc1cc2c3c(cccc3c1)C(=O)OC2=O | 32.3 | > 616 | –
O=C(/C=C/c1cccc(C(F)(F)F)c1)Nc1cc2c3c(cccc3c1)C(=O)OC2=O | 10.6 | > 206 | –
Cc1onc(-c2ccccc2Cl)c1C(=O)Nc1cc2c3c(cccc3c1)C(=O)OC2=O | 44.7 | > 826 | –
Cc1onc(-c2c(F)cccc2Cl)c1C(=O)Nc1cc2c3c(cccc3c1)C(=O)OC2=O | 6.1 | – | > 332
O=C1OC(=O)c2cc(NS(=O)(=O)/C=C/c3ccccc3)cc3cccc1c23 | 0.3 | – | –
O=C1OC(=O)c2cccc3cccc1c23 [1,8-NAPHTHALIC ANHYDRIDE] | > 294 | – | –

The remaining lines, values ahead:

Ki (Thymidylate synthase [1]) [µM] | Ki (Thymidylate synthase [2]) [µM] | Ki (Dihydrofolate reductase) [µM] | Compound
> 265 | 4.2 | – | O=C1Oc2cccc3cccc1c23
> 196 | 3.1 | – | O=C1Sc2cccc3cccc1c23
> 103 | > 98 | – | O=C1C(=O)c2ccc(Oc3ccc([N+](=O)[O-])cc3)c3cccc1c23
> 294 | > 309 | – | O=C1/C(=N/c2ccccc2)c2cccc3cccc1c23
26.8 | – | – | O=C(O)c1ccc2c3c(cccc13)C(=O)OC2=O
> 152 | > 160 | – | Nc1ccc2c3c(cccc13)C(=O)OC2=O
7.3 | – | > 110 | O=C(Nc1cc2c3c(cccc3c1)C(=O)OC2=O)c1cccc([N+](=O)[O-])c1
6.4 | > 206 | – | O=C(Nc1cc2c3c(cccc3c1)C(=O)OC2=O)c1ccc(C(F)(F)F)cc1
4 | – | – | O=C(Nc1cc2c3c(cccc3c1)C(=O)OC2=O)c1ccc(Cl)c([N+](=O)[O-])c1
6.7 | – | – | O=C(Nc1cc2c3c(cccc3c1)C(=O)OC2=O)c1ccc([N+](=O)[O-])o1
5.3 | – | – | O=C(Cc1cccs1)Nc1cc2c3c(cccc3c1)C(=O)OC2=O
6.5 | > 411 | > 55 | O=C(Nc1cc2c3c(cccc3c1)C(=O)OC2=O)c1sc2ccccc2c1Cl
2.1 | – | – | O=C1OC(=O)c2cc(NS(=O)(=O)c3cccc([N+](=O)[O-])c3)cc3cccc1c23
1.2 | – | – | O=C1OC(=O)c2cc(NS(=O)(=O)c3ccc([N+](=O)[O-])cc3)cc3cccc1c23
4.6 | – | – | O=C1OC(=O)c2cc(NS(=O)(=O)c3cc(Cl)sc3Cl)cc3cccc1c23
1.1 | – | – | O=C1OC(=O)c2cc(NS(=O)(=O)c3cccc4ccccc34)cc3cccc1c23

— ChEMBL document CHEMBL2321847, “Ligand-based discovery of N-(1,3-dioxo-1H,3H-benzo[de]isochromen-5-yl)-carboxamide and sulfonamide derivatives as thymidylate synthase A inhibitors” (Bioorg Med Chem Lett, 2013)
